# Like-named read-outs stand apart in the source and are kept apart here.
# Experiments:
# [1] = target: T1, human Cereblon WT GST-tagged protein (Homo sapiens, UniProt Q96SW2); assay: CRBN-binding affinity, HTRF (CEREBLON BINDING kit); conditions: for inhibition at 0.5 µM: read-out: Inhibition Rate at 0.5 µM (%); for inhibition at 2 µM: read-out: Inhibition Rate at 2 µM (%)
# T1 construct: purchased CISBIO 64BDCRBNPEH
# Text: The CEREBLON BINDING kits (specification: 10,000 tests; product number: Catalog # 64BDCRBNPEH; CISBIO company) was used to determine the CRBN binding ability of the compounds to be tested through a HTRF method (homogeneous time-resolved fluorescence). The specific methods are as follows: • 1. […] Specifically, diluent #9 (1X) solution was used as the diluent, and multiple concentration gradients were set. […] Into the 96-well plate, the diluted test compounds and corresponding detection reagents were added, resulting in final test compound concentrations of 2 µM and 0.5 µM, respectively. […] Then, 2.5 µL of human Cereblon WT GST-tagged protein solution was added to each well. Finally, 5 µL of the thoroughly mixed Thalidomide-Re reagent and GST Eu antibody working solution were added to each of the aforementioned wells. […] The blank control wells were sequentially added with 2.5 µL of diluent #9 (1X) solution, 2.5 µL of PROTAC binding buffer, and 5 µL of thoroughly mixed Thalidomide-Re reagent and GST Eu antibody working solution. • 4.
# [2] = test system: MV-4-11; assay: Tumor cell proliferation inhibition (CellTiter-Meiluncell Luminescent Cell Viability Assay); assay type: cell-based; conditions: Homo sapiens, 96 hours; for inhibition at 0.01 µM: MV4-11, 10 nM, read-out: Inhibition Rate at 10 nM (%); for inhibition at 0.5 µM: MV4-11, 500 nM, read-out: Inhibition Rate at 500 nM (%)
# Method: The tumor cells used herein were cultured in a cell culture medium listed in table 3 at 37°C in an incubator with 5% CO2. Prior to experimentation, all cell lines used were correctly identified by STR profiling, and tested negative for mycoplasma contamination using a mycoplasma detection kit through routine screenings. Table 3. Tumor cells and cell culture medium used in the present disclosure
# The IC50 values of the compounds of the present disclosure (including the compounds in Table 1, Table 2, and Examples) were determined using the CellTiter-Meiluncell Luminescent Cell Viability Assay Kit from Dalian Meilun Biotech Co., Ltd. The detailed procedure is as follows: Tumor cells were seeded in 96-well cell culture plates at the densities specified in Table 4. On the following day, the test compounds of the present disclosure were subjected to serial dilution. […] Subsequently, 0.5 µL of the test compound dilution was transferred into the 96-well plate containing the cells, with each well containing 100 µL of cell culture medium. […] Into the 96-well plate, the diluted test compounds and corresponding detection reagents were added, resulting in final test compound concentrations of 500 nM and 10 nM, respectively. The experimental procedure is described below using the diluted 2 µM test compound as an example.
# 0.5 µL of the aforementioned diluted compound of the present disclosure (including the compounds in Table 1, Table 2, and Examples) was added to the seeded cells in 100 µL of medium, yielding a final test compound concentration of 10 nM. After the cells were treated with the compounds of the present disclosure for a specified period, the cell viability assay reagent was added to the culture medium according to the kit's instructions to determine cell viability. […] All controls were treated using the same procedure as the compounds of the present disclosure. […] Seeding protocol and treatment time for tumor cells
# T1 sequence (Q96SW2 whole entry): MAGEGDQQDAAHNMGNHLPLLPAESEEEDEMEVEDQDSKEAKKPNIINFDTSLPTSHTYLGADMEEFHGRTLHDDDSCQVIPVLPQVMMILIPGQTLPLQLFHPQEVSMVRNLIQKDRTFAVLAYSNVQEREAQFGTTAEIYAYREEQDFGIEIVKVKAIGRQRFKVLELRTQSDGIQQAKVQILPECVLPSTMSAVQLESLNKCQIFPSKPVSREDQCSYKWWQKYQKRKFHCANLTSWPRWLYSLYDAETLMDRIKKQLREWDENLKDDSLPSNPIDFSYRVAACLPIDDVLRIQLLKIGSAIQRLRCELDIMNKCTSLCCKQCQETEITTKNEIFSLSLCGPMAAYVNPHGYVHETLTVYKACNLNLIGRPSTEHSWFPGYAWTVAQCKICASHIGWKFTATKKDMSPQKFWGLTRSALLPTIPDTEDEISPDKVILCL
SMILES,inhibition at 0.5 µM [1] [%],inhibition at 2 µM [1] [%],"inhibition at 0.01 µM ([2]; Table I-6, IRAK4 inhibitors) [%]","inhibition at 0.5 µM ([2]; Table I-6, IRAK4 inhibitors) [%]","inhibition at 0.01 µM ([2]; Table I-13, CDK2 inhibitors) [%]","inhibition at 0.5 µM ([2]; Table I-13, CDK2 inhibitors) [%]"
"O=C1CCC(N2Cc3cc(CN4CCN(c5ccc6c(c5)nc(NC(=O)c5cccc(C(F)(F)F)c5)n6[C@H]5CC[C@@H](CO)CC5)CC4)ccc3C2=S)C(=O)N1 (relative stereo) [GT-05293, N-(5-(4-((2-(2,6-dioxopiperidin-3-yl)-1-thioxoisoindolin-5-yl)methyl)piperazin-1-yl)-1-((1s,4s)-4-(hydroxymethyl)cyclohexyl)-1H-benzo[d]imidazol-2-yl)-3-(trifluoromethyl)benzamide]",40 to 53,60 to 80,10 to 20,60 to 70,–,–
"O=C1CCC(N2Cc3c(CN4CCC(n5cc(NC(=O)c6cnn7ccc(N8CCOCC8)nc67)c(C(F)F)n5)CC4)cccc3C2=S)C(=O)N1 (centres unmarked) [GT-05287, N-(3-(difluoromethyl)-1-(1-((2-(2,6-dioxopiperidin-3-yl)-1-thioxoisoindolin-4-yl)methyl)piperidin-4-yl)-1H-pyrazol-4-yl)-5-morpholinopyrazolo[1,5-a]pyrimidine-3-carboxamide]",53 to 60,80 to 100,10 to 20,70 to 80,–,–
"O=C1CCC(N2Cc3c(CN4CCC(n5cc(NC(=O)c6cnn7ccc(N8C[C@H]9C[C@@H]8CO9)nc67)c(C(F)F)n5)CC4)cccc3C2=S)C(=O)N1 (stereo partly drawn) [GT-05288, 5-((1R,4R)-2-oxa-5-azabicyclo[2.2.1]heptan-5-yl)-N-(3-(difluoromethyl)-1-(1-((2-(2,6-dioxopiperidin-3-yl)-1-thioxoisoindolin-4-yl)methyl)piperidin-4-yl)-1H-pyrazol-4-yl)pyrazolo[1,5-a]pyrimidine-3-carboxamide]",53 to 60,80 to 100,0 to 5,40 to 50,–,–
"Cc1cc(-c2nc(C(=O)Nc3cc4oc(N5CCN(Cc6cccc7c6CN(C6CCC(=O)NC6=O)C7=S)CC5)nc4nc3N3CC[C@@H](O)C3)co2)ccn1 (stereo partly drawn) [GT-05289, N-(2-(4-((2-(2,6-dioxopiperidin-3-yl)-1-thioxoisoindolin-4-yl)methyl)piperazin-1-yl)-5-((R)-3-hydroxypyrrolidin-1-yl)oxazolo[4,5-b]pyridin-6-yl)-2-(2-methylpyridin-4-yl)oxazole-4-carboxamide]",40 to 53,60 to 80,5 to 10,70 to 80,–,–
"COc1cc2nn(C3CCN(Cc4ccc5c(c4)CN(C4CCC(=O)NC4=O)C5=S)CC3)cc2cc1NC(=O)c1cccc(C(F)(F)F)n1 (centres unmarked) [GT-05296, N-(2-(1-((2-(2,6-dioxopiperidin-3-yl)-1-thioxoisoindolin-5-yl)methyl)piperidin-4-yl)-6-methoxy-2H-indazol-5-yl)-6-(trifluoromethyl)picolinamide]",60 to 80,80 to 100,10 to 20,50 to 60,–,–
"Cc1cc(-c2nc(C(=O)Nc3cc4oc(N5CCN(Cc6ccc7c(c6)CN(C6CCC(=O)NC6=O)C7=S)CC5)nc4nc3N3CC[C@@H](O)C3)co2)ccn1 (stereo partly drawn) [GT-05322, N-(2-(4-((2-(2,6-dioxopiperidin-3-yl)-1-thioxoisoindolin-5-yl)methyl)piperazin-1-yl)-5-((R)-3-hydroxypyrrolidin-1-yl)oxazolo[4,5-b]pyridin-6-yl)-2-(2-methylpyridin-4-yl)oxazole-4-carboxamide]",60 to 80,80 to 100,10 to 20,80 to 100,–,–
"Cc1cc(S(=O)(=O)N2CCN(Cc3cccc4c3CN(C3CCC(=O)NC3=O)C4=S)CC2)ccc1Nc1ncc(Br)c(Nc2cccc(F)c2C(N)=O)n1 (centres unmarked) [GT-08793, 2-((5-bromo-2-((4-((4-((2-(2,6-dioxopiperidin-3-yl)-1-thioxoisoindolin-4-yl)methyl)piperazin-1-yl)sulfonyl)-2-methylphenyl)amino)pyrimidin-4-yl)amino)-6-fluorobenzamide]",–,–,–,–,30 to 40,60 to 70
"O=C1CCC(N2Cc3cc(CN4CCN(c5ccc(-c6cc(F)c7c(c6)C(=O)N(C(C(=O)Nc6nccs6)c6ncn8c6CCC8)C7)cc5)CC4)ccc3C2=S)C(=O)N1 (centres unmarked) [GT-09423, 2-(6,7-dihydro-5H-pyrrolo[1,2-c]imidazol-1-yl)-2-(6-(4-(4-((2-(2,6-dioxopiperidin-3-yl)-1-thioxoisoindolin-5-yl)methyl)piperazin-1-yl)phenyl)-4-fluoro-1-oxoisoindolin-2-yl)-N-(thiazol-2-yl)acetamide]",53 to 60,60 to 80,–,–,–,–
"CCc1cc2c(cc1N1CCN(Cc3ccc4c(c3)CN(C3CCC(=O)NC3=O)C4=S)CC1)C(C)(C)c1[nH]c3cc(C#N)ccc3c1C2=O (centres unmarked) [GT-09424, 8-(4-((2-(2,6-dioxopiperidin-3-yl)-1-thioxoisoindolin-5-yl)methyl)piperazin-1-yl)-9-ethyl-6,6-dimethyl-11-oxo-6,11-dihydro-5H-benzo[b]carbazole-3-carbonitrile]",40 to 53,60 to 80,–,–,–,–
"CN(C)C(=O)c1cc2cnc(Nc3ccc(N4CCN(Cc5ccc6c(c5)C(=S)N(C5CCC(=O)NC5=O)C6)CC4)cn3)nc2n1C1CCCC1 (centres unmarked) [GT-09427, 7-cyclopentyl-2-((5-(4-((2-(2,6-dioxopiperidin-3-yl)-3-thioxoisoindolin-5-yl)methyl)piperazin-1-yl)pyridin-2-yl)amino)-N,N-dimethyl-7H-pyrrolo[2,3-d]pyrimidine-6-carboxamide]",60 to 80,80 to 100,–,–,–,–
"CC(=O)c1c(C)c2cnc(Nc3ccc(N4CCN(Cc5ccc6c(c5)C(=S)N(C5CCC(=O)NC5=O)C6)CC4)cn3)nc2n(C2CCCC2)c1=O (centres unmarked) [GT-09428, 3-(6-((4-(6-((6-acetyl-8-cyclopentyl-5-methyl-7-oxo-7,8-dihydropyrido[2,3-d]pyrimidin-2-yl)amino)pyridin-3-yl)piperazin-1-yl)methyl)-1-thioxoisoindolin-2-yl)piperidine-2,6-dione]",40 to 53,60 to 80,–,–,–,–
"O=C1CCC(N2Cc3cc(CN4CCC(NC(=O)c5n[nH]cc5NC(=O)c5c(Cl)cccc5Cl)CC4)ccc3C2=S)C(=O)N1 (centres unmarked) [GT-09434, 4-(2,6-dichlorobenzamido)-N-(1-((2-(2,6-dioxopiperidin-3-yl)-1-thioxoisoindolin-5-yl)methyl)piperidin-4-yl)-1H-pyrazole-3-carboxamide]",53 to 60,80 to 100,–,–,–,–
"CN(c1nccnc1CNc1nc(Nc2ccc(N3CCN(Cc4ccc5c(c4)C(=S)N(C4CCC(=O)NC4=O)C5)CC3)cc2)ncc1C(F)(F)F)S(C)(=O)=O (centres unmarked) [GT-09437, N-(3-(((2-((4-(4-((2-(2,6-dioxopiperidin-3-yl)-3-thioxoisoindolin-5-yl)methyl)piperazin-1-yl)phenyl)amino)-5-(trifluoromethyl)pyrimidin-4-yl)amino)methyl)pyrazin-2-yl)-N-methylmethanesulfonamide]",40 to 53,60 to 80,–,–,–,–
"CN(c1cccc(CNc2nc(Nc3ccc(N4CCN(Cc5ccc6c(c5)C(=S)N(C5CCC(=O)NC5=O)C6)CC4)cc3)ncc2C(F)(F)F)c1)S(C)(=O)=O (centres unmarked) [GT-09438, N-(3-(((2-((4-(4-((2-(2,6-dioxopiperidin-3-yl)-3-thioxoisoindolin-5-yl)methyl)piperazin-1-yl)phenyl)amino)-5-(trifluoromethyl)pyrimidin-4-yl)amino)methyl)phenyl)-N-methylmethanesulfonamide]",53 to 60,60 to 80,–,–,–,–
"Nc1ncnc2c1c(-c1ccc(Oc3ccccc3)cc1)nn2C1CCN(Cc2ccc3c(c2)C(=S)N(C2CCC(=O)NC2=O)C3)CC1 (centres unmarked) [GT-09441, 3-(6-((4-(4-amino-3-(4-phenoxyphenyl)-1H-pyrazolo[3,4-d]pyrimidin-1-yl)piperidin-1-yl)methyl)-1-thioxoisoindolin-2-yl)piperidine-2,6-dione]",40 to 53,80 to 100,–,–,–,–
"Cc1cc(-c2nc(C(=O)Nc3cc4oc(N5CCOCC5)nc4nc3N3CC[C@@H](O)C3)co2)ccn1 [emavusertib, Emavusertib, reference compound]",0 to 10,0 to 10,–,–,–,–
